{"source": "PubChem BioAssay AID1963985", "about": "(Molecular Pharmacology Branch, DTP, NCI, 2024);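 note: spheroids exposed to agents for seven days before readout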;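 for viability, T/C: percent of vehicle DMSO control viability so 100% = untreated growth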", "system": "252836-082-R-J2-PDC tumor spheroids, viability", "experiment": "Anticancer human tumor 252836-082-R-J2-PDC patient-derived head and neck squamous cell carcinoma cell line growth inhibition [PI3K]", "details": "spheroids with HUVEC and MSC; for IC50: curve of first compound; for viability, T/C: stronger effect = lower value", "text": "Combinatorial screen of targeted agents with the PI3K inhibitors inavolisib, alpelisib, duvelisib, and copanlisib in multi-cell type tumor spheroids\nA high-throughput screen of multi-cell type tumor spheroids was designed to identify active combinations of targeted small molecules and PI3K pathway inhibitors. Complex spheroids include a stromal component modeled by human endothelial cells (HUVEC) and fibroblasts modeled by human mesenchymal stem cells (MSCs). The concentration ranges selected for each drug and investigational agent were based upon clinically achievable concentrations if the clinical Cmax of the agent was known.\nCompounds. The drugs and investigational agents: inavolisib (NSC800729), alpelisib (NSC765974), duvelisib (NSC772469), copanlisib (NSC816437), ipatasertib (NSC767898), afuresertib (NSC778305), talazoparib (NSC767125), sapanisertib (NSC764658), selumetinib (NSC741078), tovorafenib (DAY101, NSC766906), vemurafenib (NSC761431), ravoxertinib (NSC781343), sotorasib (NSC818433), MRTX1133 (NSC 836407), abemaciclib (NSC 768073), palbociclib (NSC758247), venetoclax (NSC 766270), SY5609 (NSC837396), enzalutamide (NSC755605), and darolutamide (NSC825331), were obtained from the National Cancer Institute (NCI) Developmental Therapeutics Program Chemical Repository. The FDA-approved anticancer drug set is available from the NCI Developmental Therapeutics Program. […] The stock solutions were prepared in dimethyl sulfoxide (DMSO, Sigma-Aldrich, St. Louis, MO, cat. D2650) at 800-fold the tested concentration and stored at -70 degrees C prior to their use. All drugs and investigational agents were tested over a range starting from a high concentration at or near the clinical Cmax and decreasing in half-log increments. If the clinical Cmax for an agent had not been determined, the highest concentration tested was 10 microM.\nCell Culture. All cells were maintained in an incubator at 37 degrees C and 5% CO2 with 95% humidity. The PDC lines were cultured according to standard operating procedures established by the NCI PDMR (https://pdmr.cancer.gov/sops/default.htm). All PDCs were thawed and cultured in Matrigel-coated flasks prepared with a working solution of 1X Ham's F-12 nutrient mix, without supplementation (Invitrogen, Waltham, MA, cat. 11765054), 100 U/mL penicillin-streptomycin (Invitrogen, cat. 15140122), and 2.5% Matrigel (Corning Inc., Corning, NY, cat. 354248) for the first three passages. The 354836-022-R-J1-PDC, 475296-252-R-J1-PDC, and 997726-040-R-J2-PDC lines were cultured in 6A media, which includes advanced DMEM/F-12 (Thermo Fisher Scientific, cat. 12634028), 10 mM HEPES (Thermo Fisher Scientific, cat. 15630080), 1X GlutaMAX supplement (Thermo Fisher Scientific, cat. 35050061), 0.1 mg/mL primocin (InvivoGen, San Diego, CA, cat. ant-pm-2), 10% defined fetal bovine serum, heat inactivated (HyClone Laboratories Inc., Logan, UT, cat. SH30070.03HI), 50% L-WRN conditioned media (ATCC, cat. CRL-3276), 1.25 mM N-Acetyl-L-cysteine (Sigma-Aldrich, cat. A9165), 10 mM nicotinamide (Sigma-Aldrich, cat. N0636), 1X B-27 supplement (Thermo Fisher Scientific, cat. 17504044), 1X N-2 supplement (Thermo Fisher Scientific, cat. 17502048), and 10 microM Y-27632 dihydrochloride (Tocris Bioscience, Bristol, United Kingdom, cat. 1254). The 624824-186-R-J2-PDC line was cultured in 6C/Colon 1B media, which includes all 6A media components plus 50 ng/mL human EGF recombinant protein (Thermo Fisher Scientific, cat. PHG0311). […]", "data": [{"smiles": "C[C@@H](NC(=O)c1ncnc(N)c1Cl)c1ncc(C(=O)Nc2cc(C(F)(F)F)c(Cl)cn2)s1", "note": "+ CC(Nc1ccc2c(c1)OCCn1cc(N3C(=O)OCC3C(F)F)nc1-2)C(N)=O", "values": [{"measurement": "IC50", "setting": "second compound 0.00316 µM", "result": "> 10", "unit": "µM"}, {"measurement": "IC50", "setting": "second compound 0.01 µM", "result": "> 10", "unit": "µM"}, {"measurement": "IC50", "setting": "second compound 0.0316 µM", "result": "> 10", "unit": "µM"}, {"measurement": "IC50", "setting": "second compound 0.1 µM", "result": "> 10", "unit": "µM"}, {"measurement": "IC50", "setting": "second compound 0.316 µM", "result": 4.55, "unit": "µM"}, {"measurement": "IC50", "setting": "second compound 1 µM", "result": "< 0.0316", "unit": "µM"}, {"measurement": "viability, T/C", "setting": "second compound 0.00316 µM, first compound 0.0316 µM", "result": 96.4, "unit": "%"}, {"measurement": "viability, T/C", "setting": "second compound 0.00316 µM, first compound 0.1 µM", "result": 76.1, "unit": "%"}, {"measurement": "viability, T/C", "setting": "second compound 0.00316 µM, first compound 0.316 µM", "result": 90.9, "unit": "%"}, {"measurement": "viability, T/C", "setting": "second compound 0.00316 µM, first compound 1 µM", "result": 90.8, "unit": "%"}, {"measurement": "viability, T/C", "setting": "second compound 0.00316 µM, first compound 3.16 µM", "result": 77.8, "unit": "%"}, {"measurement": "viability, T/C", "setting": "second compound 0.00316 µM, first compound 10 µM", "result": 77.9, "unit": "%"}, {"measurement": "viability, T/C", "setting": "second compound 0.01 µM, first compound 0.0316 µM", "result": 98.9, "unit": "%"}, {"measurement": "viability, T/C", "setting": "second compound 0.01 µM, first compound 0.1 µM", "result": 91.3, "unit": "%"}, {"measurement": "viability, T/C", "setting": "second compound 0.01 µM, first compound 0.316 µM", "result": 85.5, "unit": "%"}, {"measurement": "viability, T/C", "setting": "second compound 0.01 µM, first compound 1 µM", "result": 100, "unit": "%"}, {"measurement": "viability, T/C", "setting": "second compound 0.01 µM, first compound 3.16 µM", "result": 87.4, "unit": "%"}, {"measurement": "viability, T/C", "setting": "second compound 0.01 µM, first compound 10 µM", "result": 80.2, "unit": "%"}, {"measurement": "viability, T/C", "setting": "second compound 0.0316 µM, first compound 0.0316 µM", "result": 84.5, "unit": "%"}, {"measurement": "viability, T/C", "setting": "second compound 0.0316 µM, first compound 0.1 µM", "result": 80.5, "unit": "%"}, {"measurement": "viability, T/C", "setting": "second compound 0.0316 µM, first compound 0.316 µM", "result": 81.5, "unit": "%"}, {"measurement": "viability, T/C", "setting": "second compound 0.0316 µM, first compound 1 µM", "result": 88.4, "unit": "%"}, {"measurement": "viability, T/C", "setting": "second compound 0.0316 µM, first compound 3.16 µM", "result": 73.8, "unit": "%"}, {"measurement": "viability, T/C", "setting": "second compound 0.0316 µM, first compound 10 µM", "result": 64, "unit": "%"}, {"measurement": "viability, T/C", "setting": "second compound 0.1 µM, first compound 0.0316 µM", "result": 59.6, "unit": "%"}, {"measurement": "viability, T/C", "setting": "second compound 0.1 µM, first compound 0.1 µM", "result": 66.3, "unit": "%"}, {"measurement": "viability, T/C", "setting": "second compound 0.1 µM, first compound 0.316 µM", "result": 61.8, "unit": "%"}, {"measurement": "viability, T/C", "setting": "second compound 0.1 µM, first compound 1 µM", "result": 77.5, "unit": "%"}, {"measurement": "viability, T/C", "setting": "second compound 0.1 µM, first compound 3.16 µM", "result": 60.5, "unit": "%"}, {"measurement": "viability, T/C", "setting": "second compound 0.1 µM, first compound 10 µM", "result": 58.4, "unit": "%"}, {"measurement": "viability, T/C", "setting": "second compound 0.316 µM, first compound 0.0316 µM", "result": 62.9, "unit": "%"}, {"measurement": "viability, T/C", "setting": "second compound 0.316 µM, first compound 0.1 µM", "result": 50.2, "unit": "%"}, {"measurement": "viability, T/C", "setting": "second compound 0.316 µM, first compound 0.316 µM", "result": 53.9, "unit": "%"}, {"measurement": "viability, T/C", "setting": "second compound 0.316 µM, first compound 1 µM", "result": 60.4, "unit": "%"}, {"measurement": "viability, T/C", "setting": "second compound 0.316 µM, first compound 3.16 µM", "result": 55.1, "unit": "%"}, {"measurement": "viability, T/C", "setting": "second compound 0.316 µM, first compound 10 µM", "result": 42.2, "unit": "%"}, {"measurement": "viability, T/C", "setting": "second compound 1 µM, first compound 0.0316 µM", "result": 42.1, "unit": "%"}, {"measurement": "viability, T/C", "setting": "second compound 1 µM, first compound 0.1 µM", "result": 44.4, "unit": "%"}, {"measurement": "viability, T/C", "setting": "second compound 1 µM, first compound 0.316 µM", "result": 46.2, "unit": "%"}, {"measurement": "viability, T/C", "setting": "second compound 1 µM, first compound 1 µM", "result": 38.2, "unit": "%"}, {"measurement": "viability, T/C", "setting": "second compound 1 µM, first compound 3.16 µM", "result": 43.3, "unit": "%"}, {"measurement": "viability, T/C", "setting": "second compound 1 µM, first compound 10 µM", "result": 32.9, "unit": "%"}]}]}
